Measurements: PubChem BioAssay (NCI)
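Test compounds were applied to cells in 96-well plates for 48 hours at 5 doses. GI50 marks 50% less growth. TGI: total growth inhibition.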

Experiments:
Test in all cases: NCI-60 cell line screen, 48 h
[1] = tested on: IGROV1 ovarian
[2] = tested on: HS 578T breast
[3] = tested on: OVCAR-8 ovarian
[4] = tested on: SK-MEL-2 melanoma
[5] = tested on: RPMI-8226 leukemia
[6] = tested on: OVCAR-5 ovarian
[7] = tested on: SW-620 colon
[8] = tested on: SF-539 CNS
[9] = tested on: CAKI-1 renal
[10] = tested on: MCF7 breast

SMILES	TGI [1]	TGI [2]	TGI [3]	TGI [4]	TGI [5]	TGI [6]	TGI [7]	TGI [8]	TGI [9]	TGI [10]	GI50 [1]	GI50 [2]	GI50 [4]	GI50 [5]	GI50 [6]	GI50 [7]	GI50 [8]	GI50 [9]	GI50 [10]
C[C@@H]1S[C@H](c2ccccc2F)N2Cc3ccccc3N=C12	> 100 µM	> 100 µM	> 100 µM	34.7 µM	44.4 µM	> 100 µM	> 100 µM	> 100 µM	> 100 µM	> 100 µM									
Oc1[nH]c2ccc(Br)cc2c1N=NC(=S)Nc1ccc(F)cc1	23.2 µM	63.6 µM	19.9 µM	25.9 µM		> 100 µM	40.2 µM	38.8 µM	19.3 µM	24.7 µM									
CCOC(CNCCC(=O)OC)OCC	> 10 µM	> 10 µM	> 10 µM	> 10 µM	> 10 µM		> 10 µM	> 10 µM	> 10 µM	> 10 µM									
CCc1c[n+]([O-])c(C)cc1[N+](=O)[O-]	> 100 µM	> 100 µM	> 100 µM	> 100 µM	> 100 µM	> 100 µM	> 100 µM	> 100 µM	> 100 µM	> 100 µM									
COc1cc2nc(-c3cccs3)oc(=O)c2cc1OC	> 100 µM	> 100 µM	> 100 µM	> 100 µM	> 100 µM	> 100 µM	> 100 µM	> 100 µM	> 100 µM	> 100 µM									
COc1cc2cc(Oc3ccc(NC(=O)c4cc(C(F)(F)F)cc(C(F)(F)F)c4)cc3)c(C)nc2cc1OC	> 50 µM	> 50 µM		> 50 µM	> 50 µM	> 50 µM	> 50 µM	> 50 µM	> 50 µM	> 50 µM	4.63 µM	9.13 µM	15.8 µM	1.57 µM	> 50 µM	4.35 µM	> 50 µM	1.5 µM	1.91 µM
COC(=O)CN1c2nc(C#N)c(C#N)nc2N(CC(=O)OC)c2nc(C#N)c(C#N)nc21	23.4 µM	39.6 µM	> 22.3 µM	> 100 µM	> 100 µM	22.6 µM	> 25.9 µM	24.2 µM	1.55 µM	18.4 µM									
CC(O)CCCOC(c1ccccc1)(c1ccccc1)c1ccccc1 (stereo not given)	29.9 µM	39.6 µM	28.2 µM	29.5 µM	> 55.6 µM	30.5 µM	32.3 µM	31.2 µM	29.9 µM	28.3 µM									
S=c1[nH]c2ccc(Br)cc2c(=S)s1	> 100 µM	> 100 µM	> 100 µM	61.8 µM	95.4 µM	60.4 µM	> 100 µM	> 100 µM	57.9 µM	40.8 µM									
Cc1ccc(OCCn2cc(Nc3ccccc3)c(=O)n(CCOc3ccc(C)cc3)c2=O)cc1	> 100 µM	> 100 µM	> 100 µM	> 100 µM	> 100 µM	> 100 µM	> 100 µM	> 100 µM	> 100 µM	> 100 µM									
CCOC(=O)c1nc2ccc(C(F)(F)F)cc2nc1Oc1ccc(C#N)cc1	28.5 µM	36.5 µM	46.4 µM	30.5 µM	> 100 µM		> 100 µM	36.7 µM	59.1 µM	37.7 µM									
CC(=O)O[C@H]1C(=O)[C@@]2(C)[C@H]([C@H](OC(=O)c3ccc(F)cc3)[C@]3(O)C[C@H](OC(=O)[C@H](O)[C@@H](NC(=O)c4ccccc4)c4ccccc4)C(C)=C1C3(C)C)[C@]1(OC(C)=O)CO[C@@H]1C[C@@H]2O	> 25 µM	0.0559 µM		9.73 µM	0.0195 µM	> 11.5 µM	> 25 µM	0.0604 µM	> 25 µM	> 25 µM									
NNC1=N/C(=C\c2ccco2)C(Cl)=N1	> 100 µM	> 100 µM	> 100 µM	> 100 µM	41.8 µM	> 100 µM	> 100 µM	57.4 µM	> 100 µM	> 100 µM									
CCCCNC(=S)N/N=C/c1cccc(C)n1	> 100 µM	> 100 µM	> 100 µM		> 100 µM	> 100 µM	> 100 µM	96.8 µM	87.8 µM	> 100 µM									
COC(C)(C)[C@@H](O)[C@H]1C[C@H](C)[C@@]2(CC[C@]3(C)[C@@H]2CC[C@@H]2[C@@]4(C)CC[C@@H](OC(C)=O)C(C)(C)[C@@H]4C[C@@H](OC4OC(COC(C)=O)C(O)C(O)C4O)[C@]23C)O1 (stereo not given in full)	16.6 µM	23.7 µM	18.7 µM	19.7 µM	5.7 µM	7.18 µM	20.2 µM	22.1 µM	24.1 µM	8.92 µM									
CNc1ncnc2c1cnn2COCC(O)CO (stereo not given)	> 100 µM	> 100 µM	> 100 µM	> 100 µM	> 100 µM	> 100 µM	> 100 µM	> 100 µM	> 100 µM	> 100 µM									
Nc1ccc(-c2nc3ccccc3s2)cc1C(F)(F)F	21.1 µM	43.5 µM	43.1 µM	31.3 µM	44.6 µM	32.2 µM	35.3 µM	37.7 µM	28.7 µM	19.4 µM	2.6 µM				17.5 µM				
COc1ccc(/C=C2\C[C@H]3[C@@H]4CCC5=C/C(=N/O)CC[C@]5(C)[C@H]4CC[C@]3(C)\C2=N\O)cc1OC	> 100 µM	> 100 µM	> 100 µM	54.5 µM	60.3 µM	> 100 µM	> 100 µM	> 100 µM	> 100 µM	> 100 µM									
O=C(O)C(SC1=NNC2(C(=O)N1)c1ccccc1-c1ccccc12)SC1=NNC2(C(=O)N1)c1ccccc1-c1ccccc12	> 10 µM	> 10 µM	> 10 µM	> 10 µM	> 10 µM	> 10 µM	> 10 µM	> 10 µM	> 10 µM	> 10 µM									
NC(CC1=CS(=O)(=O)c2ccc(Cl)cc21)C(=O)O (stereo not given)	> 100 µM	> 100 µM	> 100 µM	> 100 µM	> 100 µM	> 100 µM	> 100 µM	> 100 µM	> 100 µM	> 100 µM									
